Experimental data reported in patent US4837228A, “Antiinflammatory and antimicrobial compounds and compositions” (The University of Mississippi, priority 1982, dated 1989).
In brackets after ≈: the same amount, converted by molar mass. Like-named read-outs stand apart in the source and are kept apart here.

How the values were obtained:
Type in all cases: cell-based
[1] = tested on: Staphylococcus aureus; experiment: MIC, two-fold (broth) serial dilution, S. aureus; details: Staphylococcus aureus, read-out: MIC
Experimental: (§1) Both qualitative and quantitative screens were performed. Qualitative screening was accomplished using the agar well diffusion assay technque while quantitative screening was accomplished by the two-fold (broth) serial dilution method to determine the minimum inhibitory concentration (MIC). Innoculation was accomplished with one loop-full of a 1:10 dilution of the 24-hour-old broth culture, (fungal cultures and M.smegmatis more often required 48 to 72 hours of incubation) of the test organisms in sterile water. Streptomycin sulfate was used as a positive control for antibacterial activity while amphitericin B was used as an antifungal positive control. Organisms utilized in the screens included gram-positive, gram-negative, and acid-fast bacteria as well as different types of fungi. […] An intermediate type activity is seen where R is hydrogen. However, where R is lengthened up to C15 a decrease in activity was noted. Total saturation of the two double bonds in the compounds having a methyl side chain lead, in most cases, to an increase in both antifungal and antibacterial activity.

[2] = tested on: Candida albicans; experiment: MIC, two-fold (broth) serial dilution, C. albicans
Experimental: as §1

[3] = tested on: Trichophyton mentagrophytes; experiment: MIC, two-fold (broth) serial dilution, T. mentagrophytes
Experimental: as §1

[4] = tested on: Bacillus subtilis; experiment: MIC, two-fold (broth) serial dilution, B. subtilis; details: Bacillus subtilis, read-out: MIC
Experimental: as §1

[5] = tested on: Saccharomyces cerevisiae; experiment: MIC, two-fold (broth) serial dilution, S. cerevisiae
Experimental: as §1

[6] = tested on: Mycobacterium smegmatis; experiment: MIC, two-fold (broth) serial dilution, M. smegmatis
Experimental: as §1

[7] = tested on: Mycobacterium smegmatis; experiment: agar well diffusion assay, M. smegmatis; details: from edge of agar well
Experimental: as §1

[8] = tested on: Bacillus subtilis; experiment: agar well diffusion assay, B. subtilis; details: from edge of agar well
Experimental: as §1

[9] = tested on: Saccharomyces cerevisiae; experiment: agar well diffusion assay, S. cerevisiae; details: from edge of agar well
Experimental: as §1

[10] = tested on: Escherichia coli; experiment: agar well diffusion assay, E. coli; details: from edge of agar well
Experimental: as §1

[11] = tested on: Aspergillus niger; experiment: agar well diffusion assay, A. niger; details: from edge of agar well
Experimental: as §1

[12] = tested on: Pseudomonas aeruginosa; experiment: agar well diffusion assay, Ps. aeruginosa; details: from edge of agar well
Experimental: as §1

[13] = tested on: Staphylococcus aureus; experiment: agar well diffusion assay, S. aureus; details: from edge of agar well
Experimental: as §1

[14] = tested on: erythrocyte (heat-induced hemolysis); experiment: erythrocyte membrane stabilization assay (heat-induced erythrocyte hemolysis); details: Erythrocyte, 1 × 10^-4 M
Experimental: The published procedure (Proc. Soc. Exp. Biol. Med. 1967; 125; 837-842 Brow et al) for in vitro assay for antiinflammatory agents based on stabilization of erythrocytes was used. All compounds were prepared for administration by dissolving in physiologic saline or suspending in 2% ethanol in saline and the pH adjusted to 7.4 The concentrations tested in one series are given in Table 8. Aspirin (ASA) and phenylbutazone were used as positive controls for comparison of activity. Tests using this procedure were successfully and repeatedly using either 40% or 20% RBC suspensions.

[15] = tested on: Candida albicans; experiment: agar well diffusion assay, C. albicans; details: from edge of agar well
Experimental: as §1

[16] = tested on: Trichophyton mentagrophytes; experiment: agar well diffusion assay, T. mentagrophytes; details: for width of inhibition zone: from edge of agar well
Experimental: as §1

[17] = Trichophyton mentagrophytes, 48 h, read-out: MIC
[18] = Trichophyton mentagrophytes, 72 h, read-out: MIC
[19] = Mycolicibacterium smegmatis, 24 h, read-out: MIC
[20] = Mycolicibacterium smegmatis, 48 h, read-out: MIC
[21] = 48 hr, listed as Iso CBC (VIII)
[22] = 72 hr, listed as Iso CBC (VIII)

Structure (SMILES) | MIC ([1]; 24 h) | MIC ([1]; 48 h) | MIC [3, 17] | MIC [3, 18] | MIC [6, 19] | MIC [6, 20] | width of inhibition zone ([7]; 24 hr) | width of inhibition zone ([7]; 48 hr) | width of inhibition zone ([8]; 24 hr) | width of inhibition zone ([8]; 48 hr) | width of inhibition zone ([9]; 48 hr) | width of inhibition zone ([9]; 72 hr) | width of inhibition zone ([10]; 24 hr) | width of inhibition zone ([10]; 48 hr) | width of inhibition zone ([11]; 48 hr) | width of inhibition zone ([12]; 24 hr) | width of inhibition zone ([13]; 24 hr) | width of inhibition zone ([13]; 48 hr) | width of inhibition zone ([15]; 48 hr) | width of inhibition zone ([15]; 72 hr) | further results
CC(C)=CCCC1(C)C=Cc2c(O)cccc2O1 (stereo not drawn) [CBC (VI), 2-methyl-2-(4'-methyl-pent-3'-enyl)-5-hydroxychromene] | 12.5 µg/mL (≈ 51.2 µM) | 12.5 µg/mL (≈ 51.2 µM) | 25 µg/mL (≈ 102 µM) | 25 µg/mL (≈ 102 µM) | 12.5 µg/mL (≈ 51.2 µM) | 12.5 µg/mL (≈ 51.2 µM) | 20. mm | 18. mm | 10. mm | 10. mm | 10. mm | 8. mm | 3. mm | 2. mm | 9. mm | 3. mm | 15. mm | 15. mm | 7. mm | 5. mm | MIC ([2]; 48 hr): 50.0 µg/mL (≈ 205 µM); MIC ([2]; 72 hr): 50.0 µg/mL (≈ 205 µM); MIC ([2]; Candida albicans, 48 h, read-out: MIC): 50 µg/mL (≈ 205 µM); MIC ([2]; Candida albicans, 72 h, read-out: MIC): 50 µg/mL (≈ 205 µM); MIC ([3]; 48 hr): 25.0 µg/mL (≈ 102 µM); MIC ([3]; 72 hr): 25.0 µg/mL (≈ 102 µM); MIC ([4]; 24 h): 6.25 µg/mL (≈ 25.6 µM); MIC ([4]; 48 h): 12.5 µg/mL (≈ 51.2 µM); MIC ([5]; 48 hr): 25.0 µg/mL (≈ 102 µM); MIC ([5]; 72 hr): 25.0 µg/mL (≈ 102 µM); MIC ([5]; Saccharomyces cerevisiae, 48 h, read-out: MIC): 25 µg/mL (≈ 102 µM); MIC ([5]; Saccharomyces cerevisiae, 72 h, read-out: MIC): 25 µg/mL (≈ 102 µM); width of inhibition zone ([11]; 72 hr): 5. mm; inhibition at 100 µM ([14]; Table 8, read-out: inhibition of heat-induced erythrocyte hemolysis): 69%; width of inhibition zone ([16]; 48 hr): 20. mm; width of inhibition zone ([16]; 72 hr): 19. mm
CC(C)=CCCC1(C)C=Cc2ccc(O)cc2O1 (stereo not drawn) [Iso CBC (VII), 2-methyl-2(4'-methyl-pent-3'-enyl)-7-hydroxychromene] | 12.5 µg/mL (≈ 51.2 µM) | 12.5 µg/mL (≈ 51.2 µM) | 6.25 µg/mL (≈ 25.6 µM) | 6.25 µg/mL (≈ 25.6 µM) | 25 µg/mL (≈ 102 µM) | 25 µg/mL (≈ 102 µM) | 6. mm | 4. mm | 10. mm | 7. mm | 2. mm | 2. mm | 2. mm | 2. mm | 1. mm | 4. mm | 10. mm | 10. mm | 3. mm | 2. mm | MIC [2, 21]: 12.5 µg/mL (≈ 51.2 µM); MIC [2, 22]: 25 µg/mL (≈ 102 µM); MIC ([6]; 24 hr): 12.5 µg/mL (≈ 51.2 µM); MIC ([6]; 48 hr): 12.5 µg/mL (≈ 51.2 µM); width of inhibition zone ([7]; 24 hr, listed as Iso CBC (VIII)): 5. mm; width of inhibition zone [7, 21]: 5. mm; width of inhibition zone [9, 21]: 4. mm; width of inhibition zone [9, 22]: 4. mm; width of inhibition zone ([12]; 48 hr): 4. mm; inhibition at 100 µM ([14]; read-out: inhibition of heat-induced erythrocyte hemolysis, Table 8): 43%; width of inhibition zone [15, 21]: 4. mm; width of inhibition zone [15, 22]: 5. mm; agar well diffusion result in words ([16]; one entry across 48 hr and 72 hr): No growth
